These results are taken from patent US20250017937A1, “MGLU2/3 ANTAGONISTS FOR THE TREATMENT OF INTELLECTUAL DISABILITIES” (Hoffmann-La Roche Inc., priority 2014, published 2025).

In this experiment the test system is Shank3 KO mice. Put plainly: Water maze cognition experiment (acquisition and reversal learning) in Shank3 KO mice. Format: in vivo, mouse. Conditions: female SHANK3-KO mice. From the text:
Example 1: Cognition experiment in Shank3 KO mice an animal model of ASD with reported impairment in cognition
11-12 female wild-type and Shank3 KO mice on C57B16/J background were from F. Hoffmann La Roche breeding facilities, and were 10 weeks old at the beginning of the study. 20male Nlgn3 knockout rats and 20 littermate wild-type controls (background: Sprague Dawley) were from F. Hoffmann La Roche breeding facilities. All rats and mice were group-housed in holding rooms at controlled temperature (20-22° C.), humidity (55-65%) and 12-h light/dark cycle (lights on 06:00 h). All animals were allowed ad libitum access to food and water. The experimental procedures used in the present investigation received prior approval from the City of Basel Cantonal Animal Protection Committee based on adherence to federal and local regulations.
II-a were synthesized at F. Hoffmann-La Roche Ltd. according to procedures known in the art^12. Both compounds were prepared as a suspension in 0.3% Tween 80 v/v 0.9% saline and administered per os by gavage using an administration volume of 5 ml/kg (rat) or 10 ml/kg (mouse). […] All doses reported in this study are expressed as free base equivalents.
On days 1-7, II-a was administered once daily per os with 10 mg/kg (WT: n=11: KO: n=12) or vehicle (WT: n=12; KO: n=12), 3 h prior to testing from day 1 of water maze until the last day of testing. The dose of II-a was reduced to 7 mg/kg on days 8-16. Water maze was conducted on days 1-12 of treatment, with 2 days for “shaping” prior to the start of drug treatment. The grooming/digging test was conducted on days 15-16. […]
Data analysis: The mean latency, path length, and swim speed were assessed during acquisition and reversal learning. In the probe trial, the percent time spent searching for the previous platform in each quadrant (left, platform, right, and opposite), and the number of platform crossings were measured.

With `Cc1cc(-c2ccc(C(F)(F)F)cc2)cc(-c2cccc(-c3cccc(S(N)(=O)=O)c3)n2)n1` [II-a], under “FIGS. 1 and 2, C57BL/6j background, 10 weeks old, II-a 10 mg/kg po chronic vs Veh”, the “latency to reach platform (mean latency during acquisition and reversal learning)” value is given as “some improvement in latency to reach platform in KO mice only”. For the same compound, the “path length during acquisition and reversal learning” value (FIGS. 1 and 2, II-a 10 mg/kg po chronic vs Veh) was “significant block 7”. The “memory impairment in the KO-Veh compared to WT-Veh (water maze)” value (FIGS. 3 and 4, II-a 10 mg/kg po chronic, repeated measures analysis of variance) is “improvement”.
